Data on 20 compounds can be found in patent publication US12528815B2, “5-amino-8-(4-pyridyl)-[1,2,4]triazolo[4,3-c]pyrimidin-3-one compounds for use against cancer” (Nxera Pharma UK Limited, priority 2020, dated 2026).

In assay [1] the target is T1, human adenosine A1 receptor (Homo sapiens, UniProt P30542).
T1 construct: expressed in transfected cells; host or cells: HEK293 cells infected with BacMam (the same paragraph also labels the preparation CHO-hA1)
T1 sequence (P30542 1-326): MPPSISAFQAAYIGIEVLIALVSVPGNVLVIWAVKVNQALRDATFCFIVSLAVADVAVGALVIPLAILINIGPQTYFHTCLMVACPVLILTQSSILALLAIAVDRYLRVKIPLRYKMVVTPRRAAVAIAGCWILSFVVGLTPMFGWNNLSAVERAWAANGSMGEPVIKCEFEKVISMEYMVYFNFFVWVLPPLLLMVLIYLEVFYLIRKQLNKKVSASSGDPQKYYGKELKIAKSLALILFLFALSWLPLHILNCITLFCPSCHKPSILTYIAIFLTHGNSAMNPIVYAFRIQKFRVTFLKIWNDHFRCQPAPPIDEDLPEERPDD
In words: Inhibition binding assay, human adenosine A1 receptor membranes, [3H]DPCPX. The note with it: 1 nM [3H]DPCPX, 25° C., 1 h; IC50 converted to Ki with Cheng-Prusoff; read-out: A1 pKi (converted). The gist of the method: (§1)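 Membranes from BacMam-infected HEK293 cells (0.2 μg A2A, 1.4 μg A1) incubated 1 h at 25° C with test compound and 1 nM [3H]ZM241385 (A2A; 50 mM Tris-HCl pH 7.4) or [3H]DPCPX (A1; plus 100 mM NaCl, 10 mM MgCl2). Nonspecific: 1 μM CGS15943 or DPCPX. Filtration, scintillation; IC50 converted to Ki via Cheng-Prusoff.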

Assay [2] addresses T2, human adenosine A2A receptor (Homo sapiens, UniProt P29274).
T2 construct: expressed in transfected cells; host or cells: HEK293 cells infected with BacMam
In words: Inhibition binding assay, human adenosine A2A receptor membranes, [3H]ZM241385. The note with it: 1 nM [3H]ZM241385, HEK293-hA2A membranes, 25° C., 1 h; IC50 converted to Ki with Cheng-Prusoff; read-out: A2A pKi (converted). The gist of the method:
as §1

Where only a bound is given, the exact number is not on record here.

T2 sequence (P29274 whole entry): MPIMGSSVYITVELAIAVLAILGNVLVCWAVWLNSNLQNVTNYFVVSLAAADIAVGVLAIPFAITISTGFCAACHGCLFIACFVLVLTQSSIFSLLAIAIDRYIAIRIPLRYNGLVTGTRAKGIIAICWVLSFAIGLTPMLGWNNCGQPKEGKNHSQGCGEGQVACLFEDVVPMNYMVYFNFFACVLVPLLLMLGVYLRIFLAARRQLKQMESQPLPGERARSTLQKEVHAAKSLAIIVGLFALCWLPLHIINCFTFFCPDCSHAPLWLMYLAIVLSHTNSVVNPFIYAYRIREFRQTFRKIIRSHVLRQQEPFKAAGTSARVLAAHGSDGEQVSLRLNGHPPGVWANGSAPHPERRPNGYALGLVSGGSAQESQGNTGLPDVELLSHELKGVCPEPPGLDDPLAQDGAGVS

As for `Cc1cc(-c2c(-c3ccc(F)cc3)nc(N)n3c(=O)n(C)nc23)cc(Cl)n1` [Example 2-49, 5-amino-8-(2-chloro-6-methyl-4-pyridyl)-7-(4-fluorophenyl)-2-methyl-[1,2,4]triazolo[4,3-c]pyrimidin-3-one], the Ki in assay [1] is 501 nM; in assay [2], 39.8 nM.

Regarding `Cc1cc(-c2c(-c3ccccc3)nc(N)n3c(=O)n(CC(N)=O)nc23)cc(C)n1` [Example 2-22, 2-[5-amino-8-(2,6-dimethyl-4-pyridyl)-3-oxo-7-phenyl-[1,2,4]triazolo[4,3-c]pyrimidin-2-yl]acetamide], the Ki in assay [1] is 1000 nM; in assay [2] it was 200 nM.

For `Nc1nc(-c2ccccc2)c(-c2cc(Cl)nc(CO)c2)c2nn(CCC(F)(F)F)c(=O)n12` [Example 2-45, 5-amino-8-[2-chloro-6-(hydroxymethyl)-4-pyridyl]-7-phenyl-2-(3,3,3-trifluoropropyl)-[1,2,4]triazolo[4,3-c]pyrimidin-3-one], the Ki in assay [1] was 316 nM; in assay [2], 0.251 nM.

Consider `COc1cc(-c2c(-c3ccccc3)nc(N)n3c(=O)n(Cc4ccc(F)cn4)nc23)cc(C)n1` [Example 1-78, 5-amino-2-[(5-fluoro-2-pyridyl)methyl]-8-(2-methoxy-6-methyl-4-pyridyl)-7-phenyl-[1,2,4]triazolo[4,3-c]pyrimidin-3-one], for which the Ki in assay [1] is 158 nM; in assay [2] it was 0.126 nM.

Turning to `Cc1cc(-c2c(-c3ccc(F)cc3)nc(N)n3c(=O)n(CCN4CCCCC4)nc23)cc(C)n1` [Example 2-104, 5-amino-8-(2,6-dimethyl-4-pyridyl)-7-(4-fluorophenyl)-2-[2-(1-piperidyl)ethyl]-[1,2,4]triazolo[4,3-c]pyrimidin-3-one], the Ki in assay [1] was more than 3980 nM; in assay [2], 79.4 nM.

Consider `Cc1cc(-c2c(-c3ccc(F)cc3)nc(N)n3c(=O)n(Cc4ccc(C#N)cn4)nc23)cc(CO)n1` [Example 1-63, 6-[[5-amino-7-(4-fluorophenyl)-8-[2-(hydroxymethyl)-6-methyl-4-pyridyl]-3-oxo-[1,2,4]triazolo[4,3-c]pyrimidin-2-yl]methyl]pyridine-3-carbonitrile], for which the values for the Ki in assay [1] and in assay [2] were more than 3980 nM and 631 nM, respectively.

For the compound `CC#Cc1nc(N)n2c(=O)n(CCC(F)(F)F)nc2c1-c1cc(C)nc(C)c1` [Example 3-7, 5-amino-8-(2,6-dimethyl-4-pyridyl)-7-prop-1-ynyl-2-(3,3,3-trifluoropropyl)-[1,2,4]triazolo[4,3-c]pyrimidin-3-one], the Ki is more than 3980 nM in assay [1] and 31.6 nM in assay [2].

Turning to `Cc1cc(-c2c(-c3ccccc3)nc(N)n3c(=O)n(CCNC(=O)OC(C)(C)C)nc23)cc(C)n1` [Example 2-14, tert-butyl N-[2-[5-amino-8-(2,6-dimethyl-4-pyridyl)-3-oxo-7-phenyl-[1,2,4]triazolo[4,3-c]pyrimidin-2-yl]ethyl]carbamate], the Ki in assay [1] is 794 nM; in assay [2], 100 nM.

Take `Cc1cc(-c2c(-c3ccccc3)nc(N)n3c(=O)n(CCN(C)CC(=O)N4CCC(O)CC4)nc23)cc(C)n1` [Example 2-107, 5-amino-8-(2,6-dimethyl-4-pyridyl)-2-[2-[[2-(4-hydroxy-1-piperidyl)-2-oxo-ethyl]-methyl-amino]ethyl]-7-phenyl-[1,2,4]triazolo[4,3-c]pyrimidin-3-one]: the Ki is more than 3160 nM in assay [1] and 63.1 nM in assay [2].

On to `Cc1cc(-c2c(-c3ccccc3)nc(N)n3c(=O)n(Cc4ccc(O)nn4)nc23)cc(C)n1` [Example 1-37, 5-amino-8-(2,6-dimethyl-4-pyridyl)-2-[(6-hydroxypyridazin-3-yl)methyl]-7-phenyl-[1,2,4]triazolo[4,3-c]pyrimidin-3-one], for which the Ki in assay [1] is more than 3160 nM; in assay [2], 63.1 nM.

For the compound `Cc1cc(-c2c(-c3ccccc3)nc(N)n3c(=O)n(CCN4CCOCC4)nc23)cc(C)n1` [Example 2-99, 5-amino-8-(2,6-dimethyl-4-pyridyl)-2-(2-morpholinoethyl)-7-phenyl-[1,2,4]triazolo[4,3-c]pyrimidin-3-one], the Ki in assay [1] was 794 nM; in assay [2] it was 31.6 nM.

With `[2H]c1c([2H])c([2H])c(-c2nc(N)n3c(=O)n(CCC(F)(F)F)nc3c2-c2cc(C)nc(C)c2)c([2H])c1[2H]` [Example 2-32, 5-amino-8-(2,6-dimethyl-4-pyridyl)-7-(2,3,4,5,6-pentadeuteriophenyl)-2-(3,3,3-trifluoropropyl)-[1,2,4]triazolo[4,3-c]pyrimidin-3-one], the Ki in assay [1] was 398 nM; in assay [2], 0.501 nM.

As to `C/C=C(/C)c1nc(N)n2c(=O)n(CCC(F)(F)F)nc2c1-c1cc(C)nc(C)c1` [Example 3-9, 5-amino-8-(2,6-dimethyl-4-pyridyl)-7-[(Z)-1-methylprop-1-enyl]-2-(3,3,3-trifluoropropyl)-[1,2,4]triazolo[4,3-c]pyrimidin-3-one], the results for the Ki in assay [1] and in assay [2] were more than 3160 nM and 398 nM, respectively.

Turning to `Cc1cc(-c2c(-c3ccccc3)nc(N)n3c(=O)n(C(CC4COCCN4)c4ccccc4)nc23)cc(C)n1` (stereo not shown) [Example 1-103, 5-amino-8-(2,6-dimethyl-4-pyridyl)-2-(2-morpholin-3-yl-1-phenyl-ethyl)-7-phenyl-[1,2,4]triazolo[4,3-c]pyrimidin-3-one], the Ki in assay [1] was 1000 nM; in assay [2], 15.8 nM.

For `Cc1cc(-c2c(-c3ccccc3)nc(N)n3c(=O)n(CC4CS(=O)(=O)C4)nc23)cc(C)n1` [Example 2-90, 5-amino-8-(2,6-dimethyl-4-pyridyl)-2-[(1,1-dioxothietan-3-yl)methyl]-7-phenyl-[1,2,4]triazolo[4,3-c]pyrimidin-3-one], the values for the Ki in assay [1] and in assay [2] were 794 nM and 50.1 nM, respectively.

On to `Cc1cc(-c2c(-c3ccccc3)nc(N)n3c(=O)n(CC(CO)CO)nc23)cc(C)n1` [Example 2-24, 5-amino-8-(2,6-dimethyl-4-pyridyl)-2-[3-hydroxy-2-(hydroxymethyl)propyl]-7-phenyl-[1,2,4]triazolo[4,3-c]pyrimidin-3-one], for which the Ki in assay [1] was 794 nM; in assay [2], 10 nM.

For the compound `Cc1cc(-c2c(-c3ccccc3)nc(N)n3c(=O)n(Cc4ccc(Cl)cn4)nc23)cc(CO)n1` [Example 1-55, 5-amino-2-[(5-chloro-2-pyridyl)methyl]-8-[2-(hydroxymethyl)-6-methyl-4-pyridyl]-7-phenyl-[1,2,4]triazolo[4,3-c]pyrimidin-3-one], the Ki was 501 nM in assay [1] and 1.58 nM in assay [2].

As to `Cc1cc(-c2c(-c3ccccc3)nc(N)n3c(=O)n(CCN[C@@H](C)c4cccc(C)n4)nc23)cc(C)n1` [Example 1-94, 5-amino-8-(2,6-dimethyl-4-pyridyl)-2-[2-[[(1S)-1-(6-methyl-2-pyridyl)ethyl]amino]ethyl]-7-phenyl-[1,2,4]triazolo[4,3-c]pyrimidin-3-one], the Ki in assay [1] is 398 nM; in assay [2] it was 10 nM.

Regarding `Cc1cc(-c2c(-c3ccccc3)nc(N)n3c(=O)n(CC4CCCCO4)nc23)cc(C)n1` (stereo not shown) [Example 2-82, 5-amino-8-(2,6-dimethyl-4-pyridyl)-7-phenyl-2-(tetrahydropyran-2-ylmethyl)-[1,2,4]triazolo[4,3-c]pyrimidin-3-one], the results for the Ki in assay [1] and in assay [2] were 251 nM and 0.316 nM, respectively.

For the compound `Cc1cc(-c2c(-c3ccccc3)nc(N)n3c(=O)n(C)nc23)cc(C)n1` [Example 2-2, 5-amino-8-(2,6-dimethyl-4-pyridyl)-2-methyl-7-phenyl-[1,2,4]triazolo[4,3-c]pyrimidin-3-one], the figures for the Ki in assay [1] and in assay [2] were 200 nM and 5.01 nM, respectively.
